The source of these data is patent publication US11970713B2, “Method for long-term ex vivo maintenance or expansion of human erythroblast, human megakaryocyte-erythroid progenitor, or human common myeloid progenitor cell and application thereof” (OCGENE THERAPEUTICS CORPORATION, priority 2020, dated 2024).

Entries after “also recorded” stand apart in the source; their conditions may differ.

The subject of this experiment is human umbilical cord blood mononuclear cells. Briefly: Cell expansion in E6 medium with different tankyrase inhibitors, removal of SB590885 or CHIR99021, or different XAV939 concentrations (Example 6). Particulars: XAV939 between 0.2 μM and 2 μM in E6 + 3i. In kind it is cell-based. How it is done:
2×10^6 of human umbilical cord blood mononuclear cells were cultured in E6 medium supplemented with 3i composition (the same as that in EXAMPLE 1) as a control group; and 2×10^6 of human umbilical cord blood mononuclear cells were cultured in E6 medium supplemented with 3i+X composition (the same as that in EXAMPLE 1) as experimental groups, wherein X presented the tankyrase inhibitor, and different tankyrase inhibitors were selected from JW55, RK-287107, WIKI4, XAV939 or TC-E5001 in different experimental groups.
Additionally, the inventors investigated effect of removal of SB590885, removal of CHIR99021, or experience of different concentrations of XAV939 on cell expansion. The cell counting results were shown in Tables 2, 3, and 4, respectively.

In the case of `Oc1nc(-c2ccc(C(F)(F)F)cc2)nc2c1CSCC2` [XAV939], the “Effect of XAV939 concentration on expanded cell numbers” value is reported as “about the same; also recorded: can promote cell expansion”.
